What was measured:
Assay type in all cases: in vitro ADME
[1] = Liver microsome stability assay (HLM); conditions: human, microsomes, pH 7.4; 3 μM test compound, NADPH; read-out: T½ in HLM
Description: (§1) General Experimental: Human and mouse liver microsomes were purchased from Xenotech at 20 mg/mL. NADPH (Sigma-Aldrich) 10 mM stocks were prepared in deionized water.
(§2) Procedure for Liver Microsome Stability Assay: Test compounds and positive controls were dissolved in 100% DMSO to make 10 mM stock solutions. Verapamil (Sigma-Aldrich) and diphenhydramine (Sigma-Aldrich) were used as positive controls for both human liver microsomes (HLM) and mouse liver microsomes (MLM). The 10 mM stock solutions of test and control compounds were further diluted in potassium phosphate buffer (100 mM, pH 7.4) to 500 μM to ensure that the organic solvent content was <0.2%. The liver microsome (HLM or MLM) assay was prepared in a 1.5 mL Eppendorf tube with a final volume of 1100 μL for duplicate runs. Each reaction contained phosphate buffer (928.4 μL), liver microsomes (55 μL), and test compound (6.6 μL of 500 μM), resulting in a final concentration of 3 μM for the test compound. The reaction was initiated with 110 μL of 10 mM NADPH. Aliquots (100 μL) were removed in duplicate at 0, 5, 10, 15, and 30 min and quenched in […] of 100% cold methanol which contained internal standard (ISTD: d5-7-ethoxy coumarin 2 μM). The aliquots were centrifuged at 12,000 g for 5 min, and the supernatant was transferred and placed in an LC-MS vial. Each time point was assessed by LC-MS/MS, and the area under the m/z curve (AUC), based on the MRM transition, was integrated w.r.t the ISTD. Positive controls were conducted at a final volume of 550 μL to enable a single run for each time point. Negative controls in the absence of NADPH were performed with the test and control compounds, respectively, at a final volume of 150 μL and measured at the most prolonged time point. Control compounds were processed and analyzed like test compounds. Each time point was run in triplicates on LC-MS/MS followed by in-between blank washes to avoid the carryover and to equilibrate the column. Half-life (T1/2) was calculated using the data obtained from LC-MS/MS and by plotting ln (% remaining of the parent prodrug) versus time and performing linear regression to determine slope. Slope=−k and T1/2=0.693/k for first-order kinetics.

[2] = Simulated Gastric Fluid stability assay; conditions: simulated gastric fluid (SGF) with pepsin, pH 1.2; SGF pH about 1.2 with pepsin, 37° C.; read-out: T½ in SGF (converted)
Description: General Experimental: Simulated Gastric Fluid (SGF) is a pH 1.2 HCl solution with purified pepsin (800-2500 units of activity) (Test Solutions, The United States Pharmacopoeia (USP), 2008). SGF was prepared according to a procedure described in Test Solution—USP and other published articles (Bioorganic Chemistry, 49 (2013), 40-48). Sodium chloride 0.20 g and purified pepsin 0.32 g (Sigma), derived from porcine stomach mucosa with an activity of 800 to 2500 units per mg of protein, were dissolved in 0.70 mL hydrochloric acid and sufficient water to make 100 mL. […] The SGF solution prepared was used for in vitro studies to evaluate the prodrug stability.
At specified time intervals, aliquots (100 μL) were withdrawn and added to pre-cooled 100% acetonitrile (200 μL spiked with ISTD) and mixed well by vortex mixing for 2 min. The mixture was centrifuged at 13000 rpm for 15 min at 4° C.

[3] = Liver microsome stability assay (MLM); conditions: mouse, mouse liver microsomes, pH 7.4; 3 μM test compound, NADPH; read-out: T 1/2 in MLM
Description: as §1
as §2, with “Each time point was run in triplicates on LC-MS/MS followed by in-between blank washes to avoid the carryover and to equilibrate the column.” left out, “Slope=−k and T1/2=0.693/k for first-order kinetics.” left out

[4] = Brain homogenate stability assay; conditions: mouse brain homogenate, 37° C.
Source text: General Experimental: Purchases were made for DPBS (1X) (Gibco) and Pierce BCA Assay kit for protein quantification (Thermo Fischer). Frozen mouse brain homogenate was provided by Dr. Scott Myers at Emory University School of Medicine (C57BL/6J adult male mice (Jackson Laboratory), 239 days (34 weeks) old). Briefly, each mouse was euthanized via isoflurane overdose and immediately upon cessation of breathing the chest cavity was opened and the left ventricle punctured with a 21G needle, the vena cava was then clipped and the body perfused with cold PBS (pH 7.35) for 2 min. Following, the brain was removed (on ice) and the forebrain separated from the cerebellum. The forebrain wet weight was recorded and placed into 3 mL ice cold HBSS (Hank's Balanced Salt Solution, pH 7.4), and then homogenized for 10 secs at 3/4 max setting. […] The amount of protein in the mouse brain homogenate was quantified using the Pierce BCA assay kit before running the stability assay.
Procedure for Brain Homogenate Stability Assay: 10 mM stock solution was prepared in 100% DMSO for each test compound. […] The supernatant was transferred into the HPLC vials, and measured by LC-MS/MS. Half-life (T1/2) was calculated using the data obtained from LC-MS/MS and by plotting ln (% remaining of the parent prodrug) versus time and performing linear regression to determine slope. […]

[5] = Plasma stability (mouse plasma); conditions: read-out: T½ in mouse plasma (converted)

For `C=C(C)[C@@H]1CCC(C)=C[C@H]1c1c(O)cc(CCCCC)cc1OC(=O)C1(OP(=O)(O)O)CC1.N.N` [7b, 1-((((1′R,2′R)-6-hydroxy-5′-methyl-4-pentyl-2′-(prop-1-en-2-yl)-1′,2′,3′,4′-tetrahydro-[1,1′-biphenyl]-2-yl)oxy)carbonyl)cyclopropyl phosphate di-ammonium salt], which half-life [1] is on record?
The half-life was 2.62 h.

What about the half-life at 2 mM [2] of the same compound?
The half-life at 2 mM was greater than 3 h.

What about the half-life at 3 μM [3] of the same compound?
The half-life at 3 μM was 0.55 h.

And the “brain homogenate stability (metabolism and metabolite formation)” value [4]?
Its value is “metabolism of compound 7b and formation of CBD”.

What about the half-life [5] of the same compound?
Its half-life is 3.7 h.
